Results taken from a melting point compilation (Tetko et al.; mined from patent text by program, amines drawn as free bases though some values may be those of a salt).

Row | melting point [°C] | SMILES
1 | 144 to 145 | CS(=O)(=O)c1ccc(Cc2ccc3ccccc3c2O)cc1
2 | 144 to 146 | c1ccc(CN2CCCC3(C2)OC(c2ccccc2)(c2ccccc2)c2ccccc23)cc1 (stereo not drawn)
3 | 170 to 172 | Cn1nc(-c2ccccc2)c(CC(=O)O)c1-c1ccccc1
4 | 208 to 212 | CC(C)Cn1cnc2c1c1ccccc1n1nnnc21
5 | 104 to 110 | COC(=O)c1ccc2c(c1)Sc1ccccc1N=C2
6 | 185 to 188 | Cc1cc2cc(CN3CCCCC3)cnc2cc1NC(=O)c1ccc(-c2ccc(F)cc2)cc1
7 | 148 to 150 | CC(c1ccccc1N1CCCCC1)C(C(N)=O)c1ccc(C(=O)N(C)C)cc1 (stereo not drawn)
8 | 192 to 193 | COc1ccc(-c2nnc3c4ccccc4c(Cl)nn23)cc1
9 | 88 to 90 | CCOCc1cc2cccc(OC)c2o/c1=N\c1ccccc1
10 | 245 to 247 | COc1ccc2c(c1)C(=O)N(c1ccc3nc(C)ncc3c1)C2
11 | 173 to 174 | CC(C)C1=NC(NC(=O)CCc2ccc(Cl)cc2Cl)C(=O)N(C)c2ccccc21 (stereo not drawn)
12 | 185 to 189 | Fc1cc(CC2(Cc3ccnc(F)c3)c3ccccc3Oc3ncccc32)ccn1
13 | 148 to 149 | COc1ccc(-c2ccc(C(=O)Nc3ccc4cc(CN5CCCCC5)cnc4c3C)cc2F)cc1
14 | 99 to 101 | COc1ccc(-n2nc(NC(=O)OC(C)(C)C)c3csc(N)c3c2=O)cc1
15 | 181 to 182 | COC(=O)C1=C(C)Nc2ccccc2NC1c1cccc(Cl)c1Cl (stereo not drawn)
16 | 86 to 88 | Cc1cccc(CC(Cc2cccc(C)c2)C(=O)O)c1

Row | melting point [°C] | SMILES
17 | 125 | COC(=O)c1ccc(CC(C)(C)NCC(O)c2ccccc2)cc1 (stereo not drawn)
18 | 90 to 92.5 | Cc1ccccc1C(=O)c1cccn1C
19 | 155 to 157 | Cn1cc(C(=O)c2ccc(F)cc2)cc1C(=O)c1ccncc1
20 | 150 to 151 | CCN(C(=O)C(C)n1c(=O)n(C)c2nc(-c3ccccc3)ncc21)c1ccccc1 (stereo not drawn)
21 | 137 to 138 | Cc1nc(N2CCN(CCC3CC3)C2=O)sc1C(=O)NCc1ccccc1
22 | 117 | c1ccc(Cc2cccc3c2[nH]c2ccccc23)cc1
23 | 187 to 190 | O=C(c1ccccc1)c1sc2cc(O)ccc2c1-c1ccccc1
24 | 104 to 105 | CCOC(=O)/C=C/c1cn(Cc2ccc(OCc3csc(-c4ccccc4)n3)cc2)nc1-c1cccs1
25 | 300 | CCOC(=O)c1cn(C)c2cnc3cc(N4CCN(c5ccc(F)cc5)CC4)c(F)cc3c2c1=O
26 | 202 to 204 | CC(C(N)=O)n1c(-c2ccc(Cl)cc2)nc2cccnc21 (stereo not drawn)
27 | 222 to 225 | CC(c1oc2ccccc2c(=O)c1-c1cccc(F)c1)n1nc(-c2ccc3cc[nH]c3c2)c2c(N)ncnc21 (stereo not drawn)
28 | 150 to 153 | CC1CCc2c(-c3ccccc3)nc(=O)n(C(C)C)c2C1 (stereo not drawn)
29 | 222 to 223 | Cc1c(-c2ccccc2)nc2ccc(-c3cccc(CO)c3)cn12
30 | 148 to 149 | CCn1nc(-c2ccc(F)cc2)c(-c2ccncc2)c1C(=O)N(C)Cc1ccccc1
31 | 145 to 146 | CC(C#Cc1cccc(C2=NCC(c3ccccc3)O2)c1)N(O)C(N)=O (stereo not drawn)
32 | 152 | Cc1c(-c2ccccc2)nc2n1C(C)(C)Cc1ccccc1C2OC1CCN(C)CC1 (stereo not drawn)

Continued, compound first:

Row | SMILES | melting point [°C]
33 | CCCCc1cnc(NCCCOc2cccc(CN3CCCCC3)c2)[nH]c1=O | 105 to 106
34 | C=CCOC(=O)C(C)N(C(=O)CCl)c1c(C)cccc1C (stereo not drawn) | 55 to 56
35 | NCCCCCCCC1OCC2(CO1)COC(CCCCCCCN)OC2 (stereo not drawn) | 74 to 75
36 | COC(=O)c1ccc(Nc2ccc(C(=O)OC)cc2)cc1 | 174 to 175
37 | CCCCCCCCCCCCCc1c(C(F)(F)F)noc1NS(=O)(=O)c1ccccc1 | 89
38 | COc1cc(NC(=O)Nc2ccc3c(c2)CCN(C(=O)Nc2ccc(OCCO)cc2Cl)C3)cc(OC)c1 | 105 to 110
39 | O=C(N1CCc2ccccc2CC1)C(F)(F)F | 73 to 74
40 | O=C(CCCC(c1cc(F)ccc1F)S(=O)(=O)c1ccc(Cl)cc1)N1CCCC1 (stereo not drawn) | 125 to 126
41 | O=c1cc(Br)ccn1C1CC1 | 91 to 94
42 | Brc1ccc(N2CCNCC2)nc1 | 70.6
43 | COc1cccc([C@H]2O[C@H](CC(=O)Nc3cc(OC(C)C)c4oc(C(=O)O)cc4c3)C(=O)N(CC(C)(C)CO)c3ccc(Cl)cc32)c1OC | 189 to 190
44 | COc1ccc(SCCCCSc2ccc(OC)cc2)cc1 | 102 to 103
45 | COc1ccc2c(c1)[C@@H](Oc1ccc3c(c1)CCC(=O)N3)[C@H](N1CCC[C@@H](N)C1)C2 | 146
46 | CC#CCn1nnc2cc3c(=O)n(C(C)Cn4nccn4)nnc3cc2c1=O (stereo not drawn) | 154 to 156
47 | CCCOc1ccc(-n2c(C(F)(F)F)nn(C)c2=S)cc1 | 68 to 70
48 | COC(=O)C12CC(C(=O)OC)(C1)C2 | 92
49 | COc1ccc2sc3cc(-c4nnn[nH]4)ccc3c(=O)c2c1 | > 350
50 | CCCc1c(OCC(O)COc2cccc([N+](=O)[O-])c2C#N)ccc(C(C)=O)c1O (stereo not drawn) | 117 to 119
51 | CC(=O)Nc1ccc(C(C)(C)C)cc1F | 164 to 165
52 | CCCCCCCCCCCCCCCCSCCCCCCCCCCC(=O)NN | 108
53 | O=C(O)C1CCCC2CSc3ccccc3C21 (stereo not drawn) | 200 to 203
54 | CS(=O)(=O)Nc1ccc(C(O)(C(F)(F)F)C(F)(F)F)cc1 | 137 to 139
55 | CCCc1c(CSc2nnc(SCCCS(=O)CC(=O)O)s2)ccc(C(C)=O)c1O (stereo not drawn) | 107 to 110
56 | CC1SCCCNc2ccccc21 (stereo not drawn) | 72 to 74

Row | SMILES | melting point [°C]
57 | CCc1nc2c(Cl)cc(F)c(-n3c(=O)cc(C(F)(F)F)[nH]c3=O)c2s1 | 178 to 180
58 | CNC(=O)C1=CC(CF)(CF)Oc2ccc(Cl)cc21 | 175 to 176
59 | O=C1c2c(Cl)cccc2-n2cnc(-c3nnc(-c4ccccc4)o3)c2[C@@H]2CCCN12 | 221 to 222
60 | COc1cc(CCc2cnc(N)nc2N)cc(OC)c1OC | 155 to 157
61 | CCCN(CCN1CCN(C(=O)c2ccc3[nH]ccc3c2)CC1)C1CCc2ccc(O)cc2C1 (stereo not drawn) | 194 to 199
62 | FC(F)Sc1nnc(-c2cccs2)s1 | 63 to 64
63 | CCc1nc2c(cnn2CC)c(NC2CCOCC2)c1CNC(=O)c1cccc(C(=O)NCc2cc(Cl)cc(-c3cccc(CN4CCCNCC4)c3)c2)c1 | 121 to 124
64 | COC(=O)c1cccc(Oc2ccnc(Cl)c2)n1 | 89
65 | CCCCCCCCCCN(O)C(=O)NCCCC(=O)OC | 89 to 90
66 | CCCCCCCCCCCCCCCCCC(=O)NCCOC(=O)CCc1cc(C(C)(C)C)c(O)c(C(C)(C)C)c1 | 52 to 55
67 | CCCCOC(=O)Cc1nc(-c2ccc(F)cc2)oc1-c1ccsc1 | 81 to 82
68 | CC(=Cc1ccc(Cl)cc1Cl)[N+](=O)[O-] | 75
69 | O=C(NCCCCCCOC(=O)Oc1ccc([N+](=O)[O-])cc1)Oc1ccc(Oc2ccccc2)cc1 | 102 to 104
70 | CC(=O)NC[C@H]1CN(c2ccc(N3CCC(=C(C#N)c4cccs4)CC3)c(F)c2)C(=O)O1 | 260 to 263
71 | CCOC(=O)c1cn(N(C)C=O)c2c(F)c(N3CCN(C)CC3)c(F)cc2c1=O | 180
72 | Clc1cccc(-c2cnccn2)c1 | 53 to 54
73 | CCC12CC(Cl)C3C4CCC(=O)C=C4CCC3C1C(OC(C)=O)CC2=O (stereo not drawn) | 125
74 | Cn1nc(-c2ccc(C(F)(F)F)cc2)cc1C(=O)O | 230 to 232
75 | CCCC(=O)OC1(C(C)=O)C(C)CC2C3CCC4=CC(=O)C=CC4(C)C3(Cl)C(=O)CC21C (stereo not drawn) | 154 to 155
76 | CCC12CCC3C4CCC(=O)C=C4CCC3C1CCC2OCCN(C)C (stereo not drawn) | 87 to 88
77 | CCOc1cc(-n2c(=O)cc(C(F)(F)F)n(C)c2=O)c(F)cc1Br | 128
78 | Clc1ccc2c(Cl)nc(-c3ccc(Br)cc3)nc2c1 | 189 to 190
79 | O=C(O)CCP(=O)(O)CCC(=O)O | 156 to 159
80 | COC1=CC2=CCC3C(CCC4(C)C(C5=NC(OCc6ccccc6)OC5)=CCC34)C2(C)CC1 (stereo not drawn) | 115 to 125

Row | SMILES | melting point [°C]
81 | Cc1nc2ccsc2c2ccccc12 | 74 to 76
82 | Oc1c(Br)cc(F)cc1Cc1cc(Cl)cc(Cc2cc(F)cc(Br)c2O)c1O | 192 to 194
83 | O=C(c1ccc2c(c1)OCCO2)c1ccc2noc(-c3cccc(Cl)c3)c2c1 | 195
84 | O=C1CC(O)CC(/C=C/c2c(Cl)cc(Cl)cc2OCc2ccccc2)O1 (stereo not drawn) | 109 to 112
85 | N=C(N)NCCCc1nccs1 | 160 to 163
86 | CC(=O)NC1CCc2cc3c(cc2C1)OCC3O (stereo not drawn) | 254
87 | CC(N)c1ccc(C(=O)O)cc1 (stereo not drawn) | > 300
88 | COc1cc2c(cc1C(F)(F)F)N(C(=O)Nc1ccc(OCc3ccncc3)nc1)CC2 | 187 to 189
89 | CNC(=O)c1oc(C(C)(C)C)cc1NC(=O)Nc1ccc(C)cc1 | 190 to 193
90 | CCOC(=O)C1=C(C)Nc2nc(N3CCOCC3)nc(N3CCOCC3)c2C1c1c(F)c(F)c(F)c(F)c1F (stereo not drawn) | 195
91 | COC(=O)CC(=O)C[C@@H]1CC(=O)N1 | 45 to 46.5
92 | CCCCNS(=O)(=O)c1ccc(N2CCC(NC[C@H](O)c3ccc(O)c(NS(C)(=O)=O)c3)CC2)cc1 | 71 to 75
93 | COc1cc(C)cc(OC)c1NC(=O)CNC(=O)OC(C)(C)C | 146
94 | O=CC1=CCC(C=CC(=O)O)C=C1 (stereo not drawn) | 134 to 138
95 | O=C(NN1CCCC1=O)C(O)=CC(=O)c1cc(Cc2ccc(F)cc2F)cn(Cc2ccc(F)cc2)c1=O | 87 to 88
96 | OCc1c(Cl)cncc1Cl | 87 to 88
97 | CC(=NC1CCCCC1)Nc1ccccc1C | 130 to 131
98 | CCCCCCCCCCCCOS(=O)(=O)O | 72
99 | CCOC(=O)C(CC)c1ccc(N[C@@H](CCC(N)=O)C(=O)O)cc1 (stereo partly drawn) | 157
100 | Cc1nnc(-c2ccc3occ(-c4ccc(OCCS(C)(=O)=O)cc4)c3c2)o1 | 132 to 133
101 | O=C1NCCN1c1ccc(C(F)(F)F)cc1 | 169 to 171
102 | CC(C)(S)CNC(=O)CCC(=O)O | 86 to 87
103 | CCCc1c(OCCCSc2ccc(C(=O)CCCO)cc2)ccc(C(C)=O)c1O | 73 to 75
